Test results reported in the supplement of paper PMC10307832.

Compound: COc1cc([C@@H]2c3cc4c(cc3[C@@H](O[C@@H]3O[C@@H]5CO[C@@H](C)O[C@H]5[C@H](O)[C@H]3O)[C@H]3COC(=O)[C@H]23)OCO4)cc(OC)c1O [Etoposide] + O=C(c1cc(Cc2n[nH]c(=O)c3ccccc23)ccc1F)N1CCN(C(=O)C2CC2)CC1 [Olaparib] (partner 8 µM)
Assay: relative viability (nuclei count vs DMSO), 5 days (fraction); higher = more cells survive
Conditions: first compound 0.01 µM
In short: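 Each reported value is a median over duplicate plates. It expresses relative viability: treated-well nuclei count divided by vehicle-well nuclei count. Lung cancer cell lines in 1536-well plates were dosed by pin tool a day after seeding, alone with one drug or with a fixed anchor-drug dose plus five library-drug doses (not always all listed) in √10 steps, and nuclei were counted after 5 days.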

Cell Line	relative viability
NCI-H2126	0.882
NCI-H2342	0.474
SK-MES-1	0.697
H3255	0.524
COR-L23	0.368
COR-L 105	0.719
IA-LM	0.674
LOU-NH91	0.893
ChaGo-K-1	0.399
NCI-H2170	0.581
NCI-H3122	0.456
HOP-62	0.48
HCC-44	1.02
A549	0.32
SW 900	0.913
LU99A	0.277
BEN	0.938
HARA	0.698
HCC-78	0.679
NCI-H441	0.516
LCLC-97TM1	0.423
NCI-H2009	0.64
A-427	0.715
NCI-H460	0.395

Cell Line	relative viability
NCI-H727	0.681
NCI-H1734	0.285
NCI-H520	0.296
NCI-H2405	0.851
SW 1573	0.45
NCI-H1395	0.444
201T	0.818
NCI-H1915	0.261
HCC-827	0.685
LXF-289	1.1
NCI-H2347	0.55
NCI-H1299	0.954
NCI-H650	0.393
CAL-12T	0.716
NCI-H1651	0.175
EPLC-272H	0.833
NCI-H23	0.263
NCI-H1792	0.348
NCI-H1355	0.682
NCI-H322M	0.781
NCI-H1437	0.597
NCI-H1755	0.838
NCI-H2023	0.415
HCC-15	0.699

Same assay, conditions: first compound 0.03162 µM

Cell Line	relative viability
NCI-H522	0.724
NCI-H838	0.782
NCI-H1650	0.652
EBC-1	0.689
NCI-H1703	0.465
NCI-H1993	0.884
NCI-H2087	0.564
PC-14	0.204
LCLC-103H	0.803
NCI-H596	0.698
NCI-H2228	0.524
EMC-BAC-2	0.413
NCI-H2085	0.731
Calu-6	0.547
HCC-366	0.304
NCI-H1666	0.642
NCI-H647	0.516
LK-2	0.81
NCI-H2126	0.938
NCI-H2342	0.398
SK-MES-1	0.785
H3255	0.571
COR-L23	0.294

Cell Line	relative viability
COR-L 105	0.859
IA-LM	0.822
LOU-NH91	0.905
ChaGo-K-1	0.44
NCI-H2170	0.621
NCI-H3122	0.587
HOP-62	0.478
HCC-44	1.04
A549	0.209
SW 900	0.924
LU99A	0.28
BEN	1.01
HARA	0.764
NCI-H1648	0.885
HCC-78	0.795
NCI-H441	0.463
LCLC-97TM1	0.458
NCI-H2009	0.627
A-427	0.83
NCI-H460	0.314
NCI-H727	0.632
NCI-H1734	0.607
NCI-H520	0.328

Cell Line	relative viability
NCI-H2405	0.819
SW 1573	0.397
NCI-H1395	0.453
201T	0.804
NCI-H1915	0.268
HCC-827	0.623
LXF-289	1.07
NCI-H2347	0.543
NCI-H1299	0.964
NCI-H650	0.317
CAL-12T	0.623
NCI-H1651	0.188
EPLC-272H	0.685
NCI-H23	0.283
NCI-H1792	0.248
NCI-H1355	0.769
NCI-H322M	0.764
NCI-H1437	0.646
NCI-H1755	0.945
NCI-H2023	0.452
HCC-15	0.613
NCI-H1793	0.861

Same assay, conditions: first compound 0.1 µM

Cell Line	relative viability
NCI-H522	0.811
NCI-H838	0.64
NCI-H1650	0.723
EBC-1	0.532
NCI-H1703	0.424
NCI-H1993	0.777
NCI-H2087	0.489
PC-14	0.31
LCLC-103H	0.77
NCI-H596	0.724
NCI-H2228	0.776
EMC-BAC-2	0.352
NCI-H2085	0.746
Calu-6	0.505
HCC-366	0.217
NCI-H1666	0.758
NCI-H647	0.33
LK-2	0.511
NCI-H2126	0.658
NCI-H2342	0.267
SK-MES-1	0.56
H3255	0.588

Cell Line	relative viability
COR-L23	0.375
COR-L 105	0.701
IA-LM	0.771
LOU-NH91	0.824
ChaGo-K-1	0.332
NCI-H3122	0.634
HOP-62	0.557
HCC-44	1.04
A549	0.103
SW 900	0.968
LU99A	0.205
HARA	0.652
NCI-H1648	0.758
HCC-78	0.553
NCI-H441	0.393
LCLC-97TM1	0.229
NCI-H2009	0.692
A-427	0.588
NCI-H460	0.247
NCI-H727	0.55
NCI-H1734	0.589
NCI-H520	0.437

Cell Line	relative viability
NCI-H2405	0.701
SW 1573	0.395
NCI-H1395	0.458
201T	0.771
NCI-H1915	0.309
HCC-827	0.43
LXF-289	0.954
NCI-H2347	0.58
NCI-H1299	0.936
NCI-H650	0.314
CAL-12T	0.693
NCI-H1651	0.202
EPLC-272H	0.704
NCI-H23	0.295
NCI-H1355	0.574
NCI-H322M	0.725
NCI-H1437	0.56
NCI-H1755	0.791
NCI-H2023	0.356
HCC-15	0.629
NCI-H1793	0.608

Same assay, conditions: first compound 0.3162 µM

Cell Line	relative viability
NCI-H522	0.59
NCI-H838	0.31
NCI-H1650	0.341
EBC-1	0.405
NCI-H1703	0.246
NCI-H1993	0.658
NCI-H2087	0.319
PC-14	0.135
LCLC-103H	0.665
NCI-H596	0.537
NCI-H2228	0.296
EMC-BAC-2	0.249
NCI-H2085	0.375
Calu-6	0.274
HCC-366	0.0515
NCI-H1666	0.529
NCI-H647	0.0871
LK-2	0.287
NCI-H2126	0.585
NCI-H2342	0.208
SK-MES-1	0.257
H3255	0.379
COR-L23	0.223

Cell Line	relative viability
COR-L 105	0.572
IA-LM	0.681
LOU-NH91	0.651
ChaGo-K-1	0.219
NCI-H2170	0.514
NCI-H3122	0.297
HOP-62	0.197
HCC-44	0.918
A549	0.0476
SW 900	0.359
LU99A	0.139
BEN	0.936
HARA	0.376
NCI-H1648	0.757
HCC-78	0.259
NCI-H441	0.164
LCLC-97TM1	0.113
NCI-H2009	0.45
A-427	0.298
NCI-H460	0.0642
NCI-H727	0.689
NCI-H1734	0.373
NCI-H520	0.293

Cell Line	relative viability
NCI-H2405	0.562
SW 1573	0.16
NCI-H1395	0.479
201T	0.633
NCI-H1915	0.213
HCC-827	0.16
LXF-289	0.234
NCI-H2347	0.353
NCI-H1299	0.833
NCI-H650	0.184
CAL-12T	0.368
NCI-H1651	0.138
EPLC-272H	0.474
NCI-H23	0.174
NCI-H1792	0.212
NCI-H1355	0.332
NCI-H322M	0.548
NCI-H1437	0.394
NCI-H1755	0.799
NCI-H2023	0.137
HCC-15	0.266
NCI-H1793	0.454

Same assay, conditions: first compound 1 µM

Cell Line	relative viability
NCI-H522	0.539
NCI-H838	0.2
NCI-H1650	0.198
EBC-1	0.266
NCI-H1703	0.179
NCI-H1993	0.54
NCI-H2087	0.161
PC-14	0.123
LCLC-103H	0.383
NCI-H596	0.561
NCI-H2228	0.146
EMC-BAC-2	0.214
NCI-H2085	0.3
Calu-6	0.202
HCC-366	0.0449
NCI-H1666	0.497
NCI-H647	0.0592
LK-2	0.205
NCI-H2126	0.336
NCI-H2342	0.211
SK-MES-1	0.19
H3255	0.286
COR-L23	0.169

Cell Line	relative viability
COR-L 105	0.654
IA-LM	0.441
LOU-NH91	0.383
ChaGo-K-1	0.179
NCI-H2170	0.29
NCI-H3122	0.21
HOP-62	0.215
HCC-44	0.543
A549	0.037
SW 900	0.224
LU99A	0.118
BEN	0.672
HARA	0.206
NCI-H1648	0.358
HCC-78	0.235
NCI-H441	0.155
LCLC-97TM1	0.0808
NCI-H2009	0.275
A-427	0.221
NCI-H460	0.047
NCI-H727	0.478
NCI-H1734	0.263
NCI-H520	0.225

Cell Line	relative viability
NCI-H2405	0.293
SW 1573	0.0987
NCI-H1395	0.397
201T	0.384
NCI-H1915	0.194
HCC-827	0.164
LXF-289	0.1
NCI-H2347	0.411
NCI-H1299	0.65
NCI-H650	0.152
CAL-12T	0.213
NCI-H1651	0.0965
EPLC-272H	0.254
NCI-H23	0.166
NCI-H1792	0.152
NCI-H1355	0.221
NCI-H322M	0.508
NCI-H1437	0.323
NCI-H1755	0.422
NCI-H2023	0.111
HCC-15	0.162
NCI-H1793	0.295
